Laboratory results from article PMC4788153, “Impact of Cytochrome P450 2D6 Function on the Chiral Blood Plasma Pharmacokinetics of 3,4-Methylenedioxymethamphetamine (MDMA) and Its Phase I and II Metabolites in Humans” (PLoS ONE, 2016).
Where a name gives a salt, the structure may show the parent alone. Read-outs that look alike come from different tables or passages of the source.

Assay: Chiral plasma pharmacokinetics of MDMA and its phase I and II metabolites after controlled MDMA administration
Format: in vivo, human
Settings: for AUC(0-t) / Cmax / half-life / Tmax: human, plasma; for change in AUC24 after bupropion pretreatment / change in Cmax after bupropion pretreatment: bupropion+MDMA vs placebo+MDMA, CYP2D6 EMs, unsigned = increase; for reduction of Cmax by bupropion: metabolite stereoisomers, bupropion pretreatment vs placebo (abstract)
Protocol: Blood plasma samples were analyzed non-stereoselectively as reported previously and reanalyzed for the present report using liquid chromatography-mass spectrometry/mass spectrometry after chiral derivatization with Marfey’s reagent as described previously. The method was fully validated, including selectivity, recovery, matrix effects, bias and imprecision, stability, and limit of quantification.

[1] = both sexes, oral, 125 mg, placebo+MDMA (125 mg), CYP2D6 EM, n=13, plasma, read-out: AUC0-24h S
[2] = both sexes, oral, 125 mg, placebo+MDMA (125 mg), CYP2D6 EM, n=13, plasma, read-out: Cmax S
[3] = both sexes, oral, 125 mg, placebo+MDMA (125 mg), CYP2D6 EM, n=13, plasma, read-out: t1/2 S (converted)
[4] = both sexes, oral, 125 mg, placebo+MDMA (125 mg), CYP2D6 EM, n=13, plasma, read-out: tmax S
[5] = both sexes, oral, bupropion+MDMA (125 mg), CYP2D6 EM (EM/Bup), n=13, plasma, read-out: AUC0-24h S
[6] = both sexes, oral, bupropion+MDMA (125 mg), CYP2D6 EM (EM/Bup), n=13, plasma, read-out: Cmax S
[7] = both sexes, oral, bupropion+MDMA (125 mg), CYP2D6 EM (EM/Bup), n=13, plasma, read-out: t1/2 S (converted)
[8] = both sexes, oral, bupropion+MDMA (125 mg), CYP2D6 EM (EM/Bup), n=13, plasma, read-out: tmax S
[9] = bupropion+MDMA (125 mg), CYP2D6 EM (EM/Bup), n=13, plasma
[10] = bupropion-pretreated CYP2D6 EMs
[11] = im, placebo+MDMA (125 mg), CYP2D6 IM, n=3, plasma, read-out: AUC0-24h S
[12] = im, placebo+MDMA (125 mg), CYP2D6 IM, n=3, plasma, read-out: Cmax S
[13] = im, placebo+MDMA (125 mg), CYP2D6 IM, n=3, plasma, read-out: t1/2 S (converted)
[14] = im, placebo+MDMA (125 mg), CYP2D6 IM, n=3, plasma, read-out: tmax S
[15] = placebo+MDMA (125 mg), CYP2D6 EM, n=13, plasma
[16] = placebo+MDMA (125 mg), CYP2D6 IM, n=3, plasma
[17] = placebo-pretreated EMs, same-configuration MDMA enantiomer
[18] = both sexes, oral, 125 mg, placebo+MDMA (125 mg), CYP2D6 EM, n=13, plasma, read-out: AUC0-24h R
[19] = both sexes, oral, 125 mg, placebo+MDMA (125 mg), CYP2D6 EM, n=13, plasma, read-out: tmax R
[20] = both sexes, oral, bupropion+MDMA (125 mg), CYP2D6 EM (EM/Bup), n=13, plasma, read-out: AUC0-24h R
[21] = both sexes, oral, bupropion+MDMA (125 mg), CYP2D6 EM (EM/Bup), n=13, plasma, read-out: Cmax R
[22] = both sexes, oral, bupropion+MDMA (125 mg), CYP2D6 EM (EM/Bup), n=13, plasma, read-out: t1/2 R (converted)
[23] = both sexes, oral, bupropion+MDMA (125 mg), CYP2D6 EM (EM/Bup), n=13, plasma, read-out: tmax R
[24] = both sexes, oral, placebo+MDMA (125 mg), CYP2D6 EM, n=13, plasma, read-out: Cmax R
[25] = both sexes, oral, placebo+MDMA (125 mg), CYP2D6 EM, n=13, plasma, read-out: t1/2 R (converted)
[26] = bupropion vs placebo pretreatment

Row | Compound | metabolite/MDMA ratio, mean constant (after approximately 2 h) (IMs) | metabolite/MDMA ratio, mean initial (highest, first hour) (IMs) | change in AUC24 after bupropion pretreatment | change in Cmax after bupropion pretreatment | tonset (time of first detection), mean [10] | metabolite/MDMA ratio, mean constant (after approximately 2 h) (bupropion-pretreated EMs) | metabolite/MDMA ratio, mean initial (highest, first hour) (bupropion-pretreated EMs) | tonset (time of first detection), mean (placebo-pretreated CYP2D6 EMs) | metabolite/MDMA ratio, mean constant (after approximately 2 h) (placebo-pretreated EMs) | metabolite/MDMA ratio, mean initial (highest, first hour) [17] | AUC(0-t) [18] | Tmax [19] | AUC(0-t) [20] | Cmax [21] | half-life [22] | Tmax [23] | Cmax [24] | half-life [25] | AUCtotal R [9] | AUCtotal R [15] | further results
1 | CN[C@@H](C)Cc1ccc(OS(=O)(=O)O)c(OC)c1 [S-HMMA sulfate] | 0.28 | 2.3 | -61% | -72% | 0.56 h | 0.21 | 0.26 | 0.33 h | 0.86 | 17.7 | – | – | – | – | – | – | – | – | – | – | AUC(0-t) [1]: 4.2 µM·h; Cmax [2]: 410 nM; half-life [3]: 6.6 h; Tmax [4]: 1.6 h; AUC(0-t) [5]: 1.6 µM·h; Cmax [6]: 110 nM; half-life [7]: 11.1 h; Tmax [8]: 2.8 h; AUCtotal S [9]: 2.2 (0.75) μmol/l*h-1; AUC(0-t) [11]: 1.7 µM·h; Cmax [12]: 140 nM; half-life [13]: 6.9 h; Tmax [14]: 2.5 h; AUCtotal S [15]: 4.6 (1.2) μmol/l*h-1; AUCtotal S [16]: 1.9 (0.34) μmol/l*h-1
2 | CN[C@H](C)Cc1ccc(O)c(OS(=O)(=O)O)c1 [R-DHMA 3-sulfate] | 0.10 | 1.9 | -61% | -68% | – | 0.10 | 0.4 | – | 0.22 | 9.9 | 2.4 µM·h | 2.8 h | 0.96 µM·h | 50 nM | 46.2 h | 3.8 h | 150 nM | 20.2 h | 3.1 (2.1) μmol/l*h-1 | 4.7 (2.5) μmol/l*h-1 | AUCtotal R [16]: 2.6 (2.4) μmol/l*h-1
3 | CN[C@H](C)Cc1ccc(OS(=O)(=O)O)c(O)c1 [R-DHMA 4-sulfate] | 0.05 | 0.94 | -43% | -54% | – | 0.05 | 0.89 | – | 0.13 | 4.9 | 1.3 µM·h | 2 h | 0.71 µM·h | 37 nM | 49.9 h | 3.2 h | 80 nM | 17.5 h | 2.9 (2.2) μmol/l*h-1 | 2.4 (1.7) μmol/l*h-1 | AUCtotal R [16]: 1.5 (1.0) μmol/l*h-1
4 | CNC(C)Cc1ccc(OS(=O)(=O)O)c(OC)c1 (centres unmarked) [HMMA sulfate] | – | – | – | – | – | – | – | – | – | – | – | – | – | – | – | – | – | – | – | – | change of R/S ratio for Cmax after bupropion pretreatment [26]: +21%; reduction of Cmax by bupropion: approximately 40%
5 | CNC(C)Cc1ccc(OC2OC(C(=O)O)C(O)C(O)C2O)c(OC)c1 (centres unmarked) [S-HMMA glucuronide] | 0.20 | 0.30 | -74% | -82% | 0.71 h | 0.20 | 0.10 | 0.38 h | 1.3 | 5.6 | – | – | – | – | – | – | – | – | – | – | AUC(0-t) [1]: 5.2 µM·h; Cmax [2]: 490 nM; half-life [3]: 6.1 h; Tmax [4]: 2.9 h; AUC(0-t) [5]: 1.3 µM·h; Cmax [6]: 88 nM; half-life [7]: 9 h; Tmax [8]: 4.9 h; AUCtotal S [9]: 1.7 (1.0) μmol/l*h-1; AUC(0-t) [11]: 1.3 µM·h; Cmax [12]: 99 nM; half-life [13]: 7.1 h; Tmax [14]: 4 h; AUCtotal S [15]: 5.5 (3.9) μmol/l*h-1; AUCtotal S [16]: 1.5 (0.83) μmol/l*h-1
6 | CNC(C)Cc1ccc(OS(=O)(=O)O)c(O)c1 (centres unmarked) [DHMA 4-sulfate] | – | – | – | – | – | – | – | – | – | – | – | – | – | – | – | – | – | – | – | – | reduction of Cmax by bupropion: approximately 40%
7 | CC(N)Cc1ccc2c(c1)OCO2 (centres unmarked) [R-MDA, 3,4-methylenedioxyamphetamine] | – | – | -26% | -27% | – | – | – | – | – | – | 0.26 µM·h | 12.5 h | 0.19 µM·h | 10 nM | – | 14.9 h | 14 nM | – | – | – | –
8 | CC(N)Cc1ccc2c(c1)OCO2 (centres unmarked) [MDA, 3,4-methylenedioxyamphetamine] | – | – | – | – | – | – | – | – | – | – | – | – | – | – | – | – | – | – | – | – | change of R/S ratio for AUC24 after bupropion pretreatment [26]: -17%; change of R/S ratio for Cmax after bupropion pretreatment [26]: -19%
9 | CN[C@H](C)Cc1ccc(OS(=O)(=O)O)c(OC)c1 [R-HMMA sulfate] | 0.13 | 1.9 | -62% | -62% | 0.53 h | 0.13 | 0.31 | 0.33 h | 0.54 | 15.8 | 5.5 µM·h | 2 h | 2.1 µM·h | 140 nM | 34.4 h | 4.2 h | 370 nM | 17.5 h | 7.1 (4.6) μmol/l*h-1 | 9.6 (2.7) μmol/l*h-1 | AUCtotal R [16]: 3.4 (1.3) μmol/l*h-1
